TGI data for 3 molecules are collected here from PubChem BioAssay (NCI).

Some test systems named below: SF-295 CNS; HOP-18 NSCLC; M19-MEL melanoma; DLD-1 colon; DMS 114 small cell lung; LXFL 529 NSCLC; DMS 273 small cell lung; XF 498 CNS.
Holding throughout (assay): DTP human tumour cell line panel, 48 h

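Results reflect a 48-hour exposure of cells in 96-well plates to compound at five concentrations. TGI: concentration producing complete growth inhibition.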

On to `COc1cccc(/C=N/[N-]C(N)=O)c1[O-].[Ni+2].[OH3+].c1ccc(-c2ccccn2)nc1`, for which the TGI in the assay on SF-295 CNS is above 100 µM.

For `O=C(N/N=C/c1cc(Cl)cc(Cl)c1[O-])c1ccccc1O.O=C(N/N=C/c1cc(Cl)cc(Cl)c1[O-])c1ccccc1O.[Zn+2]`, in the assay with SF-295 CNS, the concentration for total growth inhibition (TGI) is 5.21 µM.

`OC1CCOc2ccccc21` (centres undefined): the total growth inhibition concentration (TGI) in the assay on HOP-18 NSCLC, in the assay on M19-MEL melanoma, in the assay on DLD-1 colon, in the assay on DMS 114 small cell lung, in the assay with LXFL 529 NSCLC and in the assay on DMS 273 small cell lung was above 100 µM in each case. In the assay on XF 498 CNS, this molecule yielded a TGI above 100 µM.

In general, TGI refers to the concentration at which net growth stops. Higher therefore signals less potent growth arrest.
